Test results published in US9084799B2, “Inhaled combination therapy” (Pulmagen Therapeutics (Synergy) Limited, priority 2005, dated 2015).
Like-named read-outs stand apart in the source and are kept apart here.

Experiments:
[1] = Single inhaled exposure, dose 187.5 mg; asthma patients; Bohadana et al. (1980); cited from earlier work
[2] = system: TS induced BAL inflammation; experiment: Tobacco smoke (TS) induced BAL inflammation, 11 daily exposures, BAL cell counts; format: in vivo, A/J mice; conditions: for % Inhibition, BAL Total cells / % Inhibition, BAL lymphocytes / % Inhibition, BAL macrophages / % Inhibition, BAL neutrophils: 24 hrs following 11 daily TS exposures
Description: Female inbred A/J mice (body weights on initial day of use: ˜20 g) were obtained from Harlan, full barrier bred and certified free from specified micro-organisms on receipt. The mice were housed, up to 5 per cage, in individually ventilated, polycarbonate solid bottomed cages (IVC) with grade 8 aspen chip bedding. Environment (airflow, temperature and humidity) within the cages was controlled by the IVC system (Techniplast). Food (RM 1, Special Diet Services) and water were provided ad libitum. Individual animals were identified by unique coloured “pentel” markings on their tails, weighed and randomly assigned to treatment groups.
In this exposure protocol, mice were exposed in groups of 5 in individual clear polycarbonate chambers (27 cm×16 cm×12 cm). The TS from the cigarettes was allowed to enter the exposure chambers at a flow rate of 100 ml/min. In order to minimise any potential problems caused by repeated exposure to a high level of TS (6 cigarettes), the exposure of the mice to TS was increased gradually over the exposure period to a maximum of 6 cigarettes. The exposure schedule used in this study was as follows:
A further group of mice were exposed to air on a daily basis for equivalent lengths of time as controls (no TS exposure).
The trachea was cannulated using a Portex nylon intravenous cannula (pink luer fitting) shortened to approximately 8 mm. Phosphate buffered saline (PBS) containing heparin (10 units/ml) was used as the lavage fluid. A volume of 0.4 ml was gently instilled and withdrawn 3 times using a 1 ml syringe and then placed in an Eppendorf tube and kept on ice prior to subsequent determinations.
Lavage fluid was separated from cells by centrifugation and the supernatant decanted and frozen for subsequent analysis. The cell pellet was re-suspended in a known volume of PBS and total cell numbers calculated by counting a stained (Turks stain) aliquot under a microscope using a haemocytometer.
The residual cell pellet was diluted to approximately 10^5 cells per ml. A volume of 500 μl was placed in the funnel of a cytospin slide and centrifuged for 8 min at 800 rpm. The slide was air dried and stained using ‘Kwik-Diff’ solutions (Shandon) as per the proprietary instructions. When dried and cover-slipped, differential cells were counted using light microscopy. Up to 400 cells were counted by unbiased operator using light microscopy. Cells were differentiated using standard morphometric techniques.
Since tests for normality were positive the data was subjected to a one way analysis of variance test (ANOVA), followed by a Bonferroni correction for multiple comparisons in order to test for significance between treatment groups. A “p” value of <0.05 was considered to be statistically significant. Percentage inhibitions were automatically calculated within the Excel spreadsheets for the cell data using the formula below: […]

[3] = intra-nasal 0.1 mg/kg theophylline/0.1 mg/kg dexamethasone versus oral 1 mg/kg theophylline/0.3 mg/kg dexamethasone
Description: (§1) The mice were terminally anaesthetised and blood collected by cardiac puncture into syringes containing 20 U lithium Heparin in 5 ul. The collected blood was mixed and decanted into eppendorf tubes before centrifugation in a microfuge. Plasma was collected and stored at −80° C. prior to analysis by an HPLC/MS/MS method. The equipment used in the measurement of plasma levels were a Micromann Quatro Micro Mass Spectrometer (Micromass UK Limited) and a Waters 2795 Alliance HT liquid chromatograph (Waters USA).
(§2) Samples were prepared for analysis by adding 200 μl of acetonitrile (containing 0.25 mg/l dextrorphan as an internal standard) to 50 μl of each thawed sample and standard and mixed vigorously. Each sample and standard was then centrifuged at 10000 g for 2 minutes and the supernatant removed for LC-MS/MS analysis.
(§3) Positive ions for parent compound and a specific fragment product were monitored in a Multiple Reaction Monitoring mode using a Micromass Quatro Micro Mass Spectrometer with Micromass MassLynx software version 4.0. A 25 μl aliquot of each sample and standard was injected onto the liquid chromatography system. Lowest order of quantification (LOQ) was determined as 0.016 mg/L with the detection limit being 0.003 mg/L.

[4] = cited from earlier work
[5] = in vivo; conditions: A/J, mouse, 1 hour post dosing
Description: as §1, §2, §3

[6] = cited from earlier work; remark: listed apart in the source
[7] = system: key inflammatory cells in COPD; conditions: 500 mcg inhaled twice daily, 3 months, COPD patients; Hattatowa et al. 2002; cited from earlier work
[8] = system: mouse model of asthma; conditions: 350 mcg/kg intra-nasally; Shen et al. 2002; cited from earlier work
[9] = Intra-nasal dosing, Dexamethasone 0.1 mg/kg
[10] = Oral dosing, Dexamethasone 0.3 mg/kg
[11] = Intra-nasal dosing, Theophylline 0.5 mg/kg
[12] = Oral dosing, Theophylline 3 mg/kg
[13] = monotherapy, oral or intra-nasal

**Q.** With `Cn1c(=O)c2[nH]cnc2n(C)c1=O.NCCN` [Aminophylline, theophylline ethylenediamine] as the molecule, how does the “Net peak theophylline plasma level” value [1] read?
**A.** 0.91 mg/L

**Q.** For `C[C@@H]1C[C@H]2[C@@H]3CCC4=CC(=O)C=C[C@]4(C)[C@@]3(F)[C@@H](O)C[C@]2(C)[C@@]1(O)C(=O)CO` [Dexamethasone], which “% Inhibition, BAL Total cells” value [2, 9] is on record?
**A.** 13%

**Q.** And the “% Inhibition, BAL lymphocytes” value [2, 9]?
**A.** 14%

**Q.** What about the “% Inhibition, BAL macrophages” value [2, 9] of the same molecule?
**A.** 10%

**Q.** And the “% Inhibition, BAL neutrophils” value [2, 9]?
**A.** 16%

**Q.** What about the “% Inhibition, BAL Total cells” value [2, 10] of the same molecule?
**A.** −16%

**Q.** And the “% Inhibition, BAL lymphocytes” value [2, 10]?
**A.** −7%

**Q.** And the “% Inhibition, BAL macrophages” value [2, 10]?
**A.** −14%

**Q.** What about the “% Inhibition, BAL neutrophils” value [2, 10] of the same molecule?
**A.** −46%

**Q.** With `Cn1c(=O)c2[nH]cnc2n(C)c1=O` [Theophylline, 3,7-dihydro-1,3-dimethyl-1H-purine-2,6-dione] as the molecule, how does the “% Inhibition, BAL Total cells” value [2, 11] read?
**A.** 16%

**Q.** And the “% Inhibition, BAL lymphocytes” value [2, 11]?
**A.** 14%

**Q.** What about the “% Inhibition, BAL macrophages” value [2, 11] of the same molecule?
**A.** 3%

**Q.** What about the “% Inhibition, BAL neutrophils” value [2, 11] of the same molecule?
**A.** 25%

**Q.** And the “% Inhibition, BAL Total cells” value [2, 12]?
**A.** −11%

**Q.** And the “% Inhibition, BAL lymphocytes” value [2, 12]?
**A.** 1%

**Q.** And the “% Inhibition, BAL macrophages” value [2, 12]?
**A.** −4%

**Q.** What about the “% Inhibition, BAL neutrophils” value [2, 12] of the same molecule?
**A.** −10%

**Q.** What about the “inhibition of total number of cells recovered in the BAL induced by TS exposure” value [2, 13] of the same molecule?
**A.** Neither theophylline nor dexamethasone monotherapy when given orally or by the intra-nasal route significantly inhibited

**Q.** And the “inhibitory effect on specific cell types in BAL (macrophages, neutrophils, lymphocytes)” value [2, 13]?
**A.** No statistically significant inhibitory effect

**Q.** What about the “systemic theophylline levels, times lower intra-nasal vs oral” value [3] of the same molecule?
**A.** ~17 times

**Q.** And the “plasma concentration of theophylline, median value” ([4]; 250 or 375 mg theophylline twice daily with 400 mcg budesonide, asthma patients, Evans et al.)?
**A.** 8700 ng/mL

**Q.** And the “Average theophylline plasma level” value ([4]; Daily dose 400 mg oral, 4 weeks, Alexander et al. (1980))?
**A.** 15.1 mg/L

**Q.** And the “Average theophylline plasma level” value ([4]; Daily dose 600 mg oral, 4 weeks, Iversen et al. (1992))?
**A.** 7.1 mg/L

**Q.** And the “Average theophylline plasma level” value ([4]; Daily dose 300-600 mg oral, 4 weeks, Culpitt et al. (2002))?
**A.** 9.5 mg/L

**Q.** And the “theophylline plasma level in 20/25 patients (average not quoted)” value ([4]; Phyllocontin or Uniphylline, daily dose 562-573 mg oral, 4 weeks, U.S. Pat. No. 6,025,360)?
**A.** had levels ≧5 mg/L

**Q.** What about the concentration at 1 h ([5]; mean theophylline plasma level, Intra-nasal 0.1 mg/kg theophylline in combination with 0.1 mg/kg Dexamethasone, TS exposed mice) of the same molecule?
**A.** 22 ± 9 ng/mL

**Q.** What about the concentration at 1 h ([5]; mean theophylline plasma level, Intra-nasal 0.25 mg/kg theophylline in combination with 0.1 mg/kg Dexamethasone, TS exposed mice) of the same molecule?
**A.** 45 ± 10 ng/mL

**Q.** What about the concentration at 1 h ([5]; mean theophylline plasma level, Intra-nasal 0.5 mg/kg theophylline in combination with 0.1 mg/kg Dexamethasone, TS exposed mice) of the same molecule?
**A.** 74 ± 13 ng/mL

**Q.** What about the concentration at 1 h ([5]; mean theophylline plasma level, Oral 1 mg/kg theophylline in combination with 0.3 mg/kg Dexamethasone, TS exposed mice) of the same molecule?
**A.** 479 ± 47 ng/mL

**Q.** And the concentration at 1 h ([5]; mean theophylline plasma level, Oral 3 mg/kg theophylline in combination with 0.3 mg/kg Dexamethasone, TS exposed mice)?
**A.** 1370 ± 192 ng/mL

**Q.** What about the concentration at 1 h ([5]; systemic theophylline exposure (plasma level), intra-nasal administration at the doses used (0.1-0.5 mg/kg)) of the same molecule?
**A.** < 100 ng/mL

**Q.** What about the mean plasma half-life ([6]; adults) of the same molecule?
**A.** about 8 hours

**Q.** What about the “bioavailability from the gastrointestinal tract” value ([6]; oral absorption) of the same molecule?
**A.** 90-100%

**Q.** And the mean plasma half-life ([6]; premature neonates)?
**A.** approximately 30 hours

**Q.** And the “time to peak levels following ingestion” value ([6]; slowed by the presence of food)?
**A.** 1 to 2 h

**Q.** What about the mean plasma half-life ([6]; up to the age of 20) of the same molecule?
**A.** approximately 3.5 hours

**Q.** And the mean plasma half-life ([6]; up to the first year of life)?
**A.** 5 h

**Q.** What about the mean plasma half-life ([6]; within the first 6 months) of the same molecule?
**A.** 12 h

**Q.** Which “reductions in key inflammatory cells in bronchial biopsies” value [7] does the source give for “(6(,11(,16(,17( )-6,9-difluoro-11-hydroxy-16-methyl-3-oxo-17-(1-oxopropoxy)androsta-1,4-diene-17-carbothioic acid S-(fluoromethyl) ester [Fluticasone]” here?
**A.** did not detect significant reductions

**Q.** With “(+)-[(RS)-16a,17a-Butylidenedioxy-11b, 21-dihydroxy-1,4-pregnadiene-3,20-dione] [Budesonide]” as the molecule, how does the “efficacy in mouse model of asthma” value [8] read?
**A.** efficacious
